Results from patent publication US10106556B2, “Heterocyclic compound” (TAKEDA PHARMACEUTICAL COMPANY LIMITED, priority 2015, dated 2018).

Target: T1, His-hMAGL (recombinant polyhistidine tagged human MAGL protein) (Homo sapiens, UniProt Q99685)
T1 construct: made in house; host or cells: E. coli BL21(DE3)
T1 sequence (Q99685 1-303): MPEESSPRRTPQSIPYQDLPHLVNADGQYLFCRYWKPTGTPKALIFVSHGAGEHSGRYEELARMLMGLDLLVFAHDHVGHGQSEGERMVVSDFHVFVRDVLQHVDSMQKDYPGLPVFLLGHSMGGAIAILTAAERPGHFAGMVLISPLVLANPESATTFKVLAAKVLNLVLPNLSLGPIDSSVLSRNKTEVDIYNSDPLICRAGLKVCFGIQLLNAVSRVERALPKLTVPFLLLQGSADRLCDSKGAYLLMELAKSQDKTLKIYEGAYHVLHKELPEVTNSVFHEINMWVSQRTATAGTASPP
Assay: Measurement of MAGL inhibitory activity (arachidonic acid production from 2-arachidonylglycerol, RapidFire-mass spectrometry)
Assay type: biochemical
Conditions: MAGL inhibitory rate at 10 μM test compound, 60 min preincubation with His-hMAGL, 2-arachidonylglycerol substrate, 10 min reaction at room temperature
Method: Furthermore, acetonitrile (50 μL) containing 3 μM arachidonic acid-d8 (Cayman Chemical Company) was added and the mixture was stirred.
The amount of arachidonic acid in the obtained enzyme reaction mixture was calculated by measuring by RapidFire-mass spectrometry and correcting by the amount of arachidonic acid-d8. High Throughput online solid phase extraction was performed using RapidFire 300™ system (Agilent Technologies, Inc.). Samples were loaded on SPE C4 cartridge (Agilent Technologies, Inc.) and desalted with 0.2 (v/v) % acetic acid (Wako Pure Chemical Industries, Ltd.) in ultrapure water/acetonitrile (70/30, v/v) at a flow rate of 1.5 mL/min, eluted at a flow rate of 0.5 mL/min with 0.2 (v/v) % acetic acid dissolved in acetonitrile/ultrapure water (90/10, v/v), and injected into the mass spectrometry part. The injection needle was washed with ultrapure water (500 millisecond) and acetonitrile (500 millisecond) to minimize carry-over. […] The RapidFire300 system was controlled by RapidFire UI software version 3.6 (Agilent Technologies, Inc.).
The mass spectrometry of the resultant product was performed using API4000™ triple quadrupole mass spectrometer (AB SCIEX) equipped with an electrospray ion sauce (TurboIon Spray™) in a negative selected reaction monitoring (SRM) mode. The conditions of SRM are shown below. The parameters of the instrument were optimized as follows: capillary temperature 600° C., ion spray voltage −4.5 kV, collision gas 8, curtain gas 15 psi, ion source gas 1 60 psi, ion source gas 2 60 psi. The mass spectrometer was controlled by Analyst™ software version 1.5.1 (AB SCIEX). The peak area integration was analyzed using RapidFire integrator software version 3.6 (Agilent Technologies, Inc.).
MAGL inhibitory rate (%) was calculated according to the following calculation formula. (1−(arachidonic acid production amount of test compound addition group−arachidonic acid production amount of enzyme−free group)÷(arachidonic acid production amount of test compound-free group−arachidonic acid production amount of enzyme-free group))×100

Row | inhibition at 10 µM [%] | % inhibition (10 μM) (10 µM) [%] | SMILES
1 | 100 | – | O=C1COc2cc(F)c(C(=O)N3CC(COc4ccc(F)cc4Cl)C3)c(F)c2N1 [Example 281, 6-((3-((2-chloro-4-fluorophenoxy)methyl)azetidin-1-yl)carbonyl)-5,7-difluoro-2H-1,4-benzoxazin-3(4H)-one]
2 | 102 | – | O=C1COc2cc(F)c(C(=O)N3CCC(O)(COc4ccc(Cl)cc4Cl)CC3)cc2N1 [Example 74, 6-((4-((2,4-dichlorophenoxy)methyl)-4-hydroxypiperidin-1-yl)carbonyl)-7-fluoro-2H-1,4-benzoxazin-3(4H)-one]
3 | 102 | – | O=C1COc2cc(F)c(C(=O)N3CC(COc4ccc(Cl)cc4F)C3)cc2N1 [Example 126, 6-((3-((4-chloro-2-fluorophenoxy)methyl)azetidin-1-yl)carbonyl)-7-fluoro-2H-1,4-benzoxazin-3(4H)-one]
4 | 98 | – | O=C1COc2cc(F)c(C(=O)N3CC(COc4ccc5c(c4Br)CCCC5)C3)cc2N1 [Example 286, 6-((3-(((1-bromo,-5,6,7,8-tetrahydronaphthalen-2-yl)oxy)methyl)azetidin-1-yl)carbonyl)-7-fluoro-2H-1,4-benzoxazin-3(4H)-one]
5 | – | 99 | CC(Oc1ccc(F)cc1F)C1CN(C(=O)c2cc3c(cc2F)OCC(=O)N3)C1 (stereo not drawn) [Example 301, 6-((3-(1-(2,4-difluorophenoxy)ethyl)azetidin-1-yl)carbonyl)-7-fluoro-2H-1,4-benzoxazin-3(4H)-one]
6 | 99 | – | O=C1COc2ccc(C(=O)N3CCC(COc4cccc(C(F)(F)F)c4)CC3)cc2N1 [Example 57, 6-((4-((3-(trifluoromethyl)phenoxy)methyl)piperidin-1-yl)carbonyl)-2H-1,4-benzoxazin-3(4H)-one]
7 | 104 | – | O=C1COc2cc(F)c(C(=O)N3CC(COc4ccc(C(F)(F)F)c(F)c4)C3)cc2N1 [Example 277, 7-fluoro-6-((3-((3-fluoro-4-(trifluoromethyl)phenoxy)methyl)azetidin-1-yl)carbonyl)-2H-1,4-benzoxazin-3(4H)-one]
8 | 95 | – | CCc1ccc(-c2ccnc(C)c2OCC2CN(C(=O)c3cc4c(cc3F)OCC(=O)N4)C2)nc1 [Example 176, 6-((3-(((5-ethyl-2′-methyl-2,4′-bipyridin-3′-yl)oxy)methyl)azetidin-1-yl)carbonyl)-7-fluoro-2H-1,4-benzoxazin-3(4H)-one]
9 | 101 | – | O=C1COc2cc(F)c(C(=O)N3CC(OCc4cccc(Cl)c4)C3)cc2N1 [Example 336, 6-((3-((3-chlorobenzyl)oxy)azetidin-1-yl)carbonyl)-7-fluoro-2H-1,4-benzoxazin-3(4H)-one]
10 | 98 | – | COCC(Oc1ccc(Cl)cc1F)C1CN(C(=O)c2cc3c(cc2F)OCC(=O)N3)C1 (stereo not drawn) [Example 309, 6-((3-(1-(4-chloro-2-fluorophenoxy)-2-methoxyethyl)azetidin-1-yl)carbonyl)-7-fluoro-2H-1,4-benzoxazin-3(4H)-one]
11 | 99 | – | N#Cc1ccc(Cl)cc1OCC1CN(C(=O)c2cc3c(cc2F)OCC(=O)N3)C1 [Example 137, 4-chloro-2-((1-((7-fluoro-3-oxo-3,4-dihydro-2H-1,4-benzoxazin-6-yl)carbonyl)azetidin-3-yl)methoxy)benzonitrile]
12 | 102 | – | CC1(C)Cc2cccc(OCC3CN(C(=O)c4cc5c(cc4F)OCC(=O)N5)C3)c2O1 [Example 103, 6-((3-(((2,2-dimethyl-2,3-dihydro-1-benzofuran-7-yl)oxy)methyl)azetidin-1-yl)carbonyl)-7-fluoro-2H-1,4-benzoxazin-3(4H)-one]
13 | 97 | – | COC(=O)c1ccc(OCC2CCN(C(=O)c3cc4c(cc3F)OCC(=O)N4)CC2)c(Cl)c1 [Example 84, methyl-3-chloro-4-((1-((7-fluoro-3-oxo-3,4-dihydro-2H-1,4-benzoxazin-6-yl)carbony)piperidin-4-yl)methoxy)benzoate]
14 | 102 | – | N#Cc1cccc(OCC2CCN(C(=O)c3cc4c(cc3F)OCC(=O)N4)CC2)c1Cl [Example 75, 2-chloro-3-((1-((7-fluoro-3-oxo-3,4-dihydro-2H-1,4-benzoxazin-6-yl)carbonyl)piperidin-4-yl)methoxy)benzonitrile]
15 | 102 | – | O=C1COc2cc(F)c(C(=O)N3CC(OCc4ccc(Cl)cc4Cl)C3)cc2N1 [Example 324, 6-((3-((2,4-dichlorobenyzl)oxy)azetidin-1-yl)carbonyl)-7-fluoro-2H-1,4-benzoxazin-3(4H)-one]
16 | 101 | – | Cn1cccc1-c1cc(Cl)ccc1OCC1CN(C(=O)c2cc3c(cc2F)OCC(=O)N3)C1 [Example 219, 6-((3-((4-chloro-2-(1-methyl-1H-pyrrol-2-yl)phenoxy)methyl)azetidin-1-yl)carbonyl)-7-fluoro-2H-1,4-benzoxazin-3(4H)-one]
17 | 100 | – | O=C1COc2cc(F)c(C(=O)N3CC(COc4ccc5[nH]ncc5c4)C3)cc2N1 [Example 156, 7-fluoro-6-((3-((1H-indazol-5-yloxy)methyl)azetidin-1-yl)carbonyl)-2H-1,4-benzoxazin-3(4H)-one]
18 | 105 | – | O=C1COc2cc(F)c(C(=O)N3CC(COc4ccc(Cl)cc4Cl)C3)cc2N1 [Example 76, 6-((3-((2,4-dichlorophenoxy)methyl)azetidin-1-yl)carbonyl)-7-fluoro-2H-1,4-benzoxazin-3(4H)-one]
19 | 98 | – | O=C1COc2cc(F)c(C(=O)N3CC(OCc4ccc(F)cc4)C3)cc2N1 [Example 332, 7-fluoro-6-((3-((4-fluorobenzyl)oxy)azetidin-1-yl)carbonyl)-2H-1,4-benzoxazin-3(4H)-one]
20 | 100 | – | Cn1cc(-c2cc(Cl)ccc2OCC2CN(C(=O)c3cc4c(cc3F)OCC(=O)N4)C2)cn1 [Example 213, 6-((3-((4-chloro-2-(1-methyl-1H-pyrazol-4-yl)phenoxy)methyl)azetidin-1-yl)carbonyl)-7-fluoro-2H-1,4-benzoxazin-3(4H)-one]
21 | 102 | – | O=C1COc2cc(F)c(C(=O)N3CC(COc4ccc(Cl)cc4-c4ccc5c(c4)CCO5)C3)cc2N1 [Example 221, 6-((3-((4-chloro-2-(2,3-dihydro-1-benzofuran-5-yl)phenoxy)methyl)azetidin-1-yl)carbonyl)-7-fluoro-2H-1,4-benzoxazin-3(4H)-one]
22 | 100 | – | Cc1nc(C)c(-c2ccc(OCC3CN(C(=O)c4cc5c(cc4F)OCC(=O)N5)C3)c(F)c2)s1 [Example 260, 6-((3-((4-(2,4-dimethyl-1,3-thiazol-5-yl)-2-fluorophenoxy)methyl)azetidin-1-yl)carbonyl)-7-fluoro-2H-1,4-benzoxazin-3(4H)-one]
23 | 100 | – | Cc1ccc(OCC2CN(C(=O)c3cc4c(cc3F)OCC(=O)N4)C2)cc1C [Example 163, 6-((3-((3,4-dimethylphenoxy)methyl)azetidin-1-yl)carbonyl)-7-fluoro-2H-1,4-benzoxazin-3(4H)-one]
24 | 96 | – | O=C1COc2ccc(C(=O)N3CCC(COc4ccccc4OC(F)(F)F)CC3)cc2N1 [Example 53, 6-((4-((2-(trifluoromethoxy)phenoxy)methyl)piperidin-1-yl)carbonyl)-2H-1,4-benzoxazin-3(4H)-one]
25 | 94 | – | O=C1COc2cc(F)c(C(=O)N3CC(COc4ccc(-c5ccc(F)cn5)cc4F)C3)cc2N1 [Example 228, 7-fluoro-6-((3-((2-fluoro-4-(5-fluoropyridin-2-yl)phenoxy)methyl)azetidin-1-yl)carbonyl)-2H-1,4-benzoxazin-3(4H)-one]
26 | 84 | – | Cc1ccc(OCC2CCN(C(=O)c3ccc4c(c3)NC(=O)CO4)CC2)c(C)n1 [Example 38, 6-((4-(((2,6-dimethylpyridin-3-yl)oxy)methyl)piperidin-1-yl)carbonyl)-2H-1,4-benzoxazin-3(4H)-one]

Row | SMILES | inhibition at 10 µM [%] | % inhibition (10 μM) (10 µM) [%]
27 | CN1CC=C(c2ccc(OCC3CN(C(=O)c4cc5c(cc4F)OCC(=O)N5)C3)c(F)c2)CC1 [Example 245, 7-fluoro-6-((3-((2-fluoro-4-(1-methyl-1,2,3,6-tetrahydropyridin-4-yl)phenoxy)methyl)azetidin-1-yl)carbonyl)-2H-1,4-benzoxazin-3(4H)-one] | 96 | –
